Test results taken from paper PMC6768323, “Adverse Maternal, Fetal, and Postnatal Effects of Hexafluoropropylene Oxide Dimer Acid (GenX) from Oral Gestational Exposure in Sprague-Dawley Rats” (Environmental Health Perspectives, 2019).

How the values were obtained:
[1] = test system: pregnant Sprague-Dawley rats; assay: Dose-response analyses (EC5) versus maternal serum HFPO-DA concentration; type: in vivo
Protocol: Dose–response analyses for the in vitro transactivation assay data and the most sensitive in vivo end points and were conducted using four-parameter logistic regression in GraphPad Prism (constraint to bottom=0% , top=100% ). In vitro luminescence data was normalized to background (vehicle control), log10 transformed, and converted to percentage maximum response based on saturating levels of reference agonist. In vivo data were modeled as a function of log10 -transformed internal dose (i.e., dam serum HFPO-DA concentration from GD18), and response data was normalized to control and presented as a percentage. We estimated effect concentrations equivalent to a 5% deviation from control ( EC5 ). Reduction in maternal serum T3 concentration was modeled by ascribing a concentration of one-half of the detection limit (i.e., 0.1 ng/mL; detection limit of 0.2 ng/mL ) for the dose groups that were below the detection limit.

estrogen (ER) receptor = assay: ER transcriptional activation, T47D-KBluc cells; type: cell-based; settings: 100 pM to 10 μM
Protocol: (§1) HFPO-DA was assessed for agonism and antagonism of transcriptional activation for estrogen (ER), androgen (AR), and glucocorticoid receptors (GR). Method details for in vitro transactivation assays for ER ([Wilson et al. 2004a]), AR ([Hartig et al. 2002], [2007]), and GR ([Conley et al. 2017]; [Medlock Kakaley et al. 2018]) have been previously reported. Briefly, for ER activity we utilized the stably transfected T47D-KBluc cell line [publicly available via American Type Culture Collection (ATCC); CRL-2865] according to protocols provided by ATCC with the modification of Dulbecco’s Modified Eagle Media (DMEM) as the cell culture media instead of Roswell Park Memorial Institute (RPMI) media. […] All assays were run in 96-well plates and luminescence was detected using a BMG Fluostar Omega luminometer (BMG Labtech) following 24-h exposure. […] Cellular cytotoxicity across the dosing range was determined for CV-1 cells utilizing the 3-(4,5-dimethylthiazol-2-yl)-2,5-diphenyltetrazolium bromide (MTT) dye ([Mosmann 1983]). HFPO-DA was analyzed using n=2–3 biological replicate assay plates (i.e., unique cell passages) with four technical replicates per treatment per plate. […]

human GR = target: T1, human GR (Homo sapiens, UniProt P04150); assay: GR transcriptional activation, CV-1 cells; type: cell-based
T1 construct: expressed in transfected cells; host or cells: CV-1 cells (ATCC CCL-70), adenoviral transduction
T1 sequence (P04150 1-777): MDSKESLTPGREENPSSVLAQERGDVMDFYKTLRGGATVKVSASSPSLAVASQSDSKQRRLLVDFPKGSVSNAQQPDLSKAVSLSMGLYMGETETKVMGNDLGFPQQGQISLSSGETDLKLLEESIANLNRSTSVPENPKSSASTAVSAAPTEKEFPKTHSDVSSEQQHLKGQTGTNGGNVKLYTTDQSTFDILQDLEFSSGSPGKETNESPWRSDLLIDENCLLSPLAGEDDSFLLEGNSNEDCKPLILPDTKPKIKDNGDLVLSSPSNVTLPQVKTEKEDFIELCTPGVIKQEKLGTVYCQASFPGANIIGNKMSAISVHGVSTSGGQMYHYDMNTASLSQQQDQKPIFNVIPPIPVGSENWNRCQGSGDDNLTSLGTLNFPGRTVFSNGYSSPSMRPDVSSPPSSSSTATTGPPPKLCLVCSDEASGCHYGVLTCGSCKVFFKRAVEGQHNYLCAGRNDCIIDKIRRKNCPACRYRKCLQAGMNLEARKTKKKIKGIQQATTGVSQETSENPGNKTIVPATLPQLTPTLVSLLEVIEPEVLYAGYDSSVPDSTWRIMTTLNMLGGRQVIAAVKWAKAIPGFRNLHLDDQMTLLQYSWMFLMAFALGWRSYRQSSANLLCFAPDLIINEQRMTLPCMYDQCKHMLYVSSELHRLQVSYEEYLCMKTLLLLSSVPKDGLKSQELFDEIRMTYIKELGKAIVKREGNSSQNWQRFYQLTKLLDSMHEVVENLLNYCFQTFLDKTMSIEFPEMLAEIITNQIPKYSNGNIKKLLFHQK
Protocol: as §1

CV-1 cells = assay: MTT cytotoxicity; type: cell-based
Protocol: HFPO-DA was assessed for agonism and antagonism of transcriptional activation for estrogen (ER), androgen (AR), and glucocorticoid receptors (GR). Method details for in vitro transactivation assays for ER ([Wilson et al. 2004a]), AR ([Hartig et al. 2002], [2007]), and GR ([Conley et al. 2017]; [Medlock Kakaley et al. 2018]) have been previously reported. Briefly, for ER activity we utilized the stably transfected T47D-KBluc cell line [publicly available via American Type Culture Collection (ATCC); CRL-2865] according to protocols provided by ATCC with the modification of Dulbecco’s Modified Eagle Media (DMEM) as the cell culture media instead of Roswell Park Memorial Institute (RPMI) media. […] All assays were run in 96-well plates and luminescence was detected using a BMG Fluostar Omega luminometer (BMG Labtech) following 24-h exposure. […] Cellular cytotoxicity across the dosing range was determined for CV-1 cells utilizing the 3-(4,5-dimethylthiazol-2-yl)-2,5-diphenyltetrazolium bromide (MTT) dye ([Mosmann 1983]). HFPO-DA was analyzed using n=2–3 biological replicate assay plates (i.e., unique cell passages) with four technical replicates per treatment per plate.

[2] = female rat, oral 10-30 mg/kg; ref Gannon et al. 2016; cited from earlier work

O=C(O)C(F)(OC(F)(F)C(F)(F)C(F)(F)F)C(F)(F)F (stereo not shown) [HFPO-DA, Hexafluoropropylene oxide dimer acid]
EC5, maternal serum T3 ([1]; 5% deviation from control, maternal serum HFPO-DA): 3.8 µg/mL | estimated maternal oral dose at T3 EC5 ([1]; linear equation from Figure 5): 8.2 mg/kg | EC5, maternal liver Ehhadh expression ([1]; maternal serum HFPO-DA): 14.1 µg/mL | EC5, maternal liver weight ([1]; maternal serum HFPO-DA): 17.6 µg/mL | EC5, maternal serum T4 ([1]; maternal serum HFPO-DA): 17.8 µg/mL | estrogenic activity (agonism or antagonism) (estrogen (ER) receptor): did not display any estrogenic activity | glucocorticoid receptor agonism (human GR; 100 pM to 100 μM): no androgen or glucocorticoid receptor agonism | glucocorticoid receptor antagonism, reduction in luciferase expression (human GR; 100 μM, versus 1 nM Dex): 28±3% | cytotoxic dose (CV-1 cells): 300 µM | half-life [2]: ~5 h
